Laboratory results published in PubChem BioAssay (NCI).
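Following 48 hours of exposure in 96-well plates, responses at five concentrations were used to interpolate endpoints linearly. At the GI50, growth is halved. At the TGI there is no net growth.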

How the values were obtained:
Experiment in all cases: DTP human tumour cell line panel, 48 h
NCI-H522 lung = test system: NCI-H522 lung
OVCAR-8 ovarian = test system: OVCAR-8 ovarian
HOP-92 NSCLC = test system: HOP-92 NSCLC
SF-539 CNS = test system: SF-539 CNS
U251 CNS = test system: U251 CNS
RXF 393 renal = test system: RXF 393 renal
UACC-257 melanoma = test system: UACC-257 melanoma
ACHN renal = test system: ACHN renal
TK-10 renal = test system: TK-10 renal
RPMI-8226 leukemia = test system: RPMI-8226 leukemia
A498 renal = test system: A498 renal
SNB-75 CNS = test system: SNB-75 CNS
UO-31 renal = test system: UO-31 renal
LOX IMVI melanoma = test system: LOX IMVI melanoma
OVCAR-5 ovarian = test system: OVCAR-5 ovarian
MDA-MB-231 breast = test system: MDA-MB-231 breast
EKVX NSCLC = test system: EKVX NSCLC
786-0 renal = test system: 786-0 renal
MOLT-4 leukemia = test system: MOLT-4 leukemia
UACC-62 melanoma = test system: UACC-62 melanoma
M14 melanoma = test system: M14 melanoma
HT29 colon = test system: HT29 colon
BT-549 breast = test system: BT-549 breast
HCT-15 colon = test system: HCT-15 colon
SF-295 CNS = test system: SF-295 CNS
NCI/ADR-RES ovarian = test system: NCI/ADR-RES ovarian
COLO 205 colon = test system: COLO 205 colon
NCI-H23 lung = test system: NCI-H23 lung
CCRF-CEM leukemia = test system: CCRF-CEM leukemia
SNB-19 CNS = test system: SNB-19 CNS
OVCAR-3 ovarian = test system: OVCAR-3 ovarian
MCF7 breast = test system: MCF7 breast
SN12C renal = test system: SN12C renal
SK-MEL-2 melanoma = test system: SK-MEL-2 melanoma
HCT-116 colon = test system: HCT-116 colon
SW-620 colon = test system: SW-620 colon
SF-268 CNS = test system: SF-268 CNS
IGROV1 ovarian = test system: IGROV1 ovarian
NCI-H226 lung = test system: NCI-H226 lung
SK-MEL-28 melanoma = test system: SK-MEL-28 melanoma
HS 578T breast = test system: HS 578T breast
MDA-MB-435 = test system: MDA-MB-435
CAKI-1 renal = test system: CAKI-1 renal
OVCAR-4 ovarian = test system: OVCAR-4 ovarian
HL-60(TB) leukemia = test system: HL-60(TB) leukemia
MALME-3M melanoma = test system: MALME-3M melanoma
SR leukemia = test system: SR leukemia
K-562 leukemia = test system: K-562 leukemia
A549 NSCLC = test system: A549 NSCLC
NCI-H460 lung = test system: NCI-H460 lung
SK-OV-3 ovarian = test system: SK-OV-3 ovarian
HCC-2998 colon = test system: HCC-2998 colon
DU-145 prostate = test system: DU-145 prostate
KM12 colon = test system: KM12 colon
PC-3 prostate = test system: PC-3 prostate
T-47D breast = test system: T-47D breast
SK-MEL-5 melanoma = test system: SK-MEL-5 melanoma
HOP-62 NSCLC = test system: HOP-62 NSCLC

Q: What does the source list for COc1ccc(C#Cc2ccc(=O)oc2-c2cc(OC)c(OC)c(OC)c2)cc1O?
A: GI50 (NCI-H522 lung): 1100 nM; TGI (NCI-H522 lung): 22.3 µM; GI50 (OVCAR-8 ovarian): 10.6 µM; TGI (OVCAR-8 ovarian): > 100 µM; GI50 (HOP-92 NSCLC): 575 nM; TGI (HOP-92 NSCLC): 38.8 µM; GI50 (SF-539 CNS): 6.27 µM; TGI (SF-539 CNS): 40.4 µM; GI50 (U251 CNS): 5.4 µM; TGI (U251 CNS): > 100 µM; GI50 (RXF 393 renal): 1120 nM; TGI (RXF 393 renal): 8.43 µM; GI50 (UACC-257 melanoma): 7.87 µM; TGI (UACC-257 melanoma): > 100 µM; GI50 (ACHN renal): 17.2 µM; TGI (ACHN renal): > 100 µM; GI50 (TK-10 renal): 21.8 µM; TGI (TK-10 renal): > 100 µM; GI50 (RPMI-8226 leukemia): 7.83 µM; TGI (RPMI-8226 leukemia): > 88 µM; GI50 (A498 renal): 10.1 µM; TGI (A498 renal): > 83.1 µM; GI50 (SNB-75 CNS): 5.52 µM; TGI (SNB-75 CNS): 27.8 µM; GI50 (UO-31 renal): 11.1 µM; TGI (UO-31 renal): > 79.8 µM; GI50 (LOX IMVI melanoma): 12.3 µM; TGI (LOX IMVI melanoma): > 100 µM; GI50 (OVCAR-5 ovarian): 24 µM; TGI (OVCAR-5 ovarian): > 100 µM; GI50 (MDA-MB-231 breast): 6.25 µM; TGI (MDA-MB-231 breast): > 100 µM; GI50 (EKVX NSCLC): 22.2 µM; TGI (EKVX NSCLC): > 100 µM; GI50 (786-0 renal): 5.49 µM; TGI (786-0 renal): > 33.2 µM; GI50 (MOLT-4 leukemia): 6.3 µM; TGI (MOLT-4 leukemia): > 100 µM; GI50 (UACC-62 melanoma): 5.53 µM; TGI (UACC-62 melanoma): > 100 µM; GI50 (M14 melanoma): 4.33 µM; TGI (M14 melanoma): > 51.6 µM; GI50 (HT29 colon): 7.98 µM; TGI (HT29 colon): > 35.6 µM; GI50 (BT-549 breast): 7.37 µM; TGI (BT-549 breast): > 64.2 µM; GI50 (HCT-15 colon): 2860 nM; TGI (HCT-15 colon): > 100 µM; GI50 (SF-295 CNS): 4.49 µM; TGI (SF-295 CNS): > 45.2 µM; GI50 (NCI/ADR-RES ovarian): 2600 nM; TGI (NCI/ADR-RES ovarian): > 40.6 µM; GI50 (COLO 205 colon): 37.3 µM; TGI (COLO 205 colon): > 100 µM; GI50 (NCI-H23 lung): 10.7 µM; TGI (NCI-H23 lung): > 100 µM; GI50 (CCRF-CEM leukemia): 6.95 µM; TGI (CCRF-CEM leukemia): > 100 µM; GI50 (SNB-19 CNS): 18 µM; TGI (SNB-19 CNS): > 100 µM; GI50 (OVCAR-3 ovarian): 1810 nM; TGI (OVCAR-3 ovarian): 28.5 µM; GI50 (MCF7 breast): 666 nM; TGI (MCF7 breast): > 100 µM; GI50 (SN12C renal): 20.7 µM; TGI (SN12C renal): > 100 µM; GI50 (SK-MEL-2 melanoma): 6.74 µM; TGI (SK-MEL-2 melanoma): > 100 µM; GI50 (HCT-116 colon): 3.28 µM; TGI (HCT-116 colon): > 100 µM; GI50 (SW-620 colon): 1220 nM; TGI (SW-620 colon): > 100 µM; GI50 (SF-268 CNS): 7.23 µM; TGI (SF-268 CNS): > 90.8 µM; GI50 (IGROV1 ovarian): 1020 nM; TGI (IGROV1 ovarian): 6.75 µM; GI50 (NCI-H226 lung): > 34 µM; TGI (NCI-H226 lung): > 100 µM; GI50 (SK-MEL-28 melanoma): 18.2 µM; TGI (SK-MEL-28 melanoma): > 100 µM; GI50 (HS 578T breast): 7.4 µM; TGI (HS 578T breast): > 81.9 µM; GI50 (MDA-MB-435): 234 nM; TGI (MDA-MB-435): 2780 nM; GI50 (CAKI-1 renal): 7.6 µM; TGI (CAKI-1 renal): > 100 µM; GI50 (OVCAR-4 ovarian): 20.3 µM; TGI (OVCAR-4 ovarian): > 100 µM; GI50 (HL-60(TB) leukemia): 2130 nM; TGI (HL-60(TB) leukemia): 17.4 µM; GI50 (MALME-3M melanoma): 10.2 µM; TGI (MALME-3M melanoma): > 83.7 µM; GI50 (SR leukemia): 225 nM; TGI (SR leukemia): 18.7 µM; GI50 (K-562 leukemia): 505 nM; TGI (K-562 leukemia): > 100 µM; GI50 (A549 NSCLC): 7.08 µM; TGI (A549 NSCLC): > 100 µM; GI50 (NCI-H460 lung): 973 nM; TGI (NCI-H460 lung): > 100 µM; GI50 (SK-OV-3 ovarian): 6.58 µM; TGI (SK-OV-3 ovarian): > 83.1 µM; GI50 (HCC-2998 colon): 3.36 µM; TGI (HCC-2998 colon): 44 µM; GI50 (DU-145 prostate): 8.96 µM; TGI (DU-145 prostate): > 85.9 µM; GI50 (KM12 colon): 3.54 µM; TGI (KM12 colon): > 100 µM; GI50 (PC-3 prostate): 8.22 µM; TGI (PC-3 prostate): > 100 µM; TGI (T-47D breast): > 100 µM; GI50 (SK-MEL-5 melanoma): 654 nM; TGI (SK-MEL-5 melanoma): > 46.1 µM; GI50 (HOP-62 NSCLC): 5.12 µM; TGI (HOP-62 NSCLC): > 64.6 µM
